Test results published in patent publication US20160244437A1, “SUBSTITUTED PHENYLALANINE DERIVATIVES” (BAYER PHARMA AKTIENGESELLSCHAFT, priority 2013, published 2016).
Structures can show the parent of a compound that is named as a salt.

Key:
human factor XIa = target: T1, human factor XIa (Homo sapiens, UniProt P03951); assay: Measurement of FXIa inhibition (fluorogenic peptide substrate Boc-Glu(OBzl)-Ala-Arg-AMC); format: biochemical; settings: factor XIa from Kordia 0.45 nM, 15 min pre-incubation, 30 min at 22° C., fluorescence
T1 construct: purchased Kordia
Procedure: The factor XIa inhibition of the substances according to the invention is determined using a biochemical test system which utilizes the reaction of a peptidic factor XIa substrate to determine the enzymatic activity of human factor XIa. Here, factor XIa cleaves from the peptic factor XIa substrate the C-terminal aminomethylcoumarin (AMC), the fluorescence of which is measured. The determinations are carried out in microtitre plates.
Test substances are dissolved in dimethyl sulphoxide and serially diluted in dimethyl sulphoxide (3000 μM to 0.0078 μM; resulting final concentrations in the test: 50 μM to 0.00013 μM). In each case 1 μl of the diluted substance solutions is placed into the wells of white microtitre plates from Greiner (384 wells). Subsequently, the following are added successively: 20 μl of assay buffer (50 mmol/l Tris buffer pH 7.4; 100 mmol/l sodium chloride; 5 mmol/l calcium chloride; 0.1% bovine serum albumin) and 20 μl of factor XIa from Kordia (0.45 nM in assay buffer). After 15 min of incubation, the enzyme reaction is started by addition of 20 μl of the factor XIa substrate Boc-Glu(OBzl)-Ala-Arg-AMC dissolved in assay buffer (10 μM in assay buffer) from Bachem, the mixture is incubated at room temperature (22° C.) for 30 min and fluorescence is then measured (excitation: 360 nm, emission: 460 nm). The measured emissions of the test batches with test substance are compared to those of control batches without test substance (only dimethyl sulphoxide instead of test substance in dimethyl sulphoxide), and IC50 values are calculated from the concentration/activity relationships.

human and animal plasma = assay: Determination of anticoagulatory activity: activated partial thromboplastin time (aPTT) in plasma; settings: concentration of test substance which brings about a 1.5-fold extension of the aPTT; plasma in vitro, C.K. Prest kit
Procedure: The anticoagulatory activity of the test substances is determined in vitro in human and animal plasma (for example mouse, rat, rabbit, pig and dog plasma). To this end, blood is drawn off in a mixing ratio of sodium citrate/blood of 1:9 using a 0.11 molar sodium citrate solution as receiver. Immediately after the blood has been drawn off, it is mixed thoroughly and centrifuged at about 4000 g for 15 minutes. The supernatant is pipetted off.
The activated partial thromboplastin time (aPTT) is determined in the presence of varying concentrations of test substance or the corresponding solvent using a commercial test kit (C.K. Prest from Diagnostica Stago). The test compounds are incubated with the plasma and the PTT reagent (cephalin, kaolin) at 37° C. for 3 minutes. Coagulation is then started by addition of a 25 mM aqueous calcium chloride solution, and the time when coagulation occurs is determined. The concentration of test substance which brings about a 1.5-fold extension of the aPTT is determined.

T1 sequence (P03951 388-625 limits assumed): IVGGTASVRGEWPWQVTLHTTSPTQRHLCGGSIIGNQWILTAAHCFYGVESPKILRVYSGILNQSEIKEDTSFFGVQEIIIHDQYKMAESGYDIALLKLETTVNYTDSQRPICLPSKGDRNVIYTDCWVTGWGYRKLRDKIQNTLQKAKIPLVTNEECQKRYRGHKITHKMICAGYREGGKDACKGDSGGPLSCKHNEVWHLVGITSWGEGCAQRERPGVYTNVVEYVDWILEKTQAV
T1 sequence (P03951 19-387 partner limits assumed): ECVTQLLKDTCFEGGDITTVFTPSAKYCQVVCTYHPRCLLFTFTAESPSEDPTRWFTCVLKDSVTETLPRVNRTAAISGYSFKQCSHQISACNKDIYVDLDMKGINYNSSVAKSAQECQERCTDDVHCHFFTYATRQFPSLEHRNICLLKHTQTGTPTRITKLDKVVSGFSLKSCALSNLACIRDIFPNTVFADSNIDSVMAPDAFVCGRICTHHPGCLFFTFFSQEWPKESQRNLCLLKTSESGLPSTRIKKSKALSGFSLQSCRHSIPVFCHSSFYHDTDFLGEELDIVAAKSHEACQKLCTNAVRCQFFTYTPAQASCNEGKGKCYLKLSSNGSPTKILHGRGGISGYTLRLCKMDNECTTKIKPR

Row | SMILES | IC50 (human factor XIa) | aPTT (human and animal plasma)
1 | Cc1ccc(S(=O)(=O)N2CCCC2)cc1-c1cccc(C[C@H](NC(=O)[C@H]2CC[C@H](CN)CC2)C(=O)Nc2ccc3[nH]c(=O)[nH]c3c2)c1 [Example 11, trans-4-(Aminomethyl)-N-{(2S)-3-[2′-methyl-5′-(pyrrolidin-1-ylsulphonyl)biphenyl-3-yl]-1-oxo-1-[(2-oxo-2,3-dihydro-1H-benzimidazol-5-yl)amino]propan-2-yl}cyclohexanecarboxamide hydrochloride] | 7.9 nM | 0.3 µmol/L
2 | Cc1ccc(S(=O)(=O)NCc2ccccc2)cc1-c1cccc(C[C@H](NC(=O)[C@H]2CC[C@H](CN)CC2)C(=O)Nc2ccc3[nH]c(=O)[nH]c3c2)c1 [Example 12, trans-4-(Aminomethyl)-N-{(2S)-3-[5′-(benzylsulphamoyl)-2′-methylbiphenyl-3-yl]-1-oxo-1-[(2-oxo-2,3-dihydro-1H-benzimidazol-5-yl)amino]propan-2-yl}cyclohexanecarboxamide hydrochloride] | 3.2 nM | 0.3 µmol/L
3 | Cc1ccc(S(=O)(=O)NCc2ccccc2)cc1-c1cccc(C[C@H](NC(=O)[C@H]2CC[C@H](CN)CC2)C(=O)Nc2ccc(-c3n[nH]c(=O)[nH]3)cc2)c1 [Example 13, trans-4-(Aminomethyl)-N-[(2S)-3-[5′-(benzylsulphamoyl)-2′-methylbiphenyl-3-yl]-1-oxo-1-{[4-(5-oxo-4,5-dihydro-1H-1,2,4-triazol-3-yl)phenyl]amino}propan-2-yl]cyclohexanecarboxamide hydrochloride] | 9.2 nM | 0.47 µmol/L
4 | Cc1ccc(C(=O)NC2CCNCC2)cc1-c1cccc(C[C@H](NC(=O)[C@H]2CC[C@H](CN)CC2)C(=O)Nc2ccc(-c3nnn[nH]3)cc2)c1 [Example 14, 3′-[(2S)-2-({[trans-4-(Aminomethyl)cyclohexyl]carbonyl}amino)-3-oxo-3-{[4-(1H-tetrazol-5-yl)phenyl]amino}propyl]-6-methyl-N-(piperidin-4-yl)biphenyl-3-carboxamide hydrochloride] | 4.8 nM | 0.15 µmol/L
5 | Cc1ccc(C(=O)NC2C3CNCC32)cc1-c1cccc(C[C@H](NC(=O)C2CCC(CN)CC2)C(=O)Nc2ccc(-c3nnn[nH]3)cc2)c1 (stereo partly drawn) [Example 16, 3′-[(2S)-2-({[trans-4-(Aminomethyl)cyclohexyl]carbonyl}amino)-3-oxo-3-{[4-(1H-tetrazol-5-yl)phenyl]amino}propyl]-N-(3-azabicyclo[3.1.0]hex-6-yl)-6-methylbiphenyl-3-carboxamide hydrochloride] | 5.5 nM | 0.25 µmol/L
6 | Cc1ccc(C[C@H](NC(=O)[C@H]2CC[C@H](CN)CC2)C(=O)Nc2ccc(-c3nnn[nH]3)cc2)cc1-c1cccc(C(=O)N2CCOCC2)c1 [Example 17, trans-4-(Aminomethyl)-N-[(2S)-3-[6-methyl-3′-(morpholin-4-ylcarbonyl)biphenyl-3-yl]-1-oxo-1-{[4-(1H-tetrazol-5-yl)phenyl]amino}propan-2-yl]cyclohexanecarboxamide hydrochloride] | 4.1 nM | 0.19 µmol/L
7 | COCCOCCOCCNC(=O)c1cccc(-c2cc(C[C@H](NC(=O)[C@H]3CC[C@H](CN)CC3)C(=O)Nc3ccc(-c4nnn[nH]4)cc3)ccc2C)c1 [Example 18, 5′-[(2S)-2-({[trans-4-(Aminomethyl)cyclohexyl]carbonyl}amino)-3-oxo-3-{[4-(1H-tetrazol-5-yl)phenyl]amino}propyl]-N-{2-[2-(2-methoxyethoxy)ethoxy]ethyl}-2′-methylbiphenyl-3-carboxamide hydrochloride] | 5.7 nM | 0.4 µmol/L
8 | Cc1ccc(C[C@H](NC(=O)[C@H]2CC[C@H](CN)CC2)C(=O)Nc2ccc(-c3nnn[nH]3)cc2)cc1-c1cccc(C(=O)NC2CCN(C(C)C)CC2)c1 [Example 19, 5′-[(2S)-2-({[trans-4-(Aminomethyl)cyclohexyl]carbonyl}amino)-3-oxo-3-{[4-(1H-tetrazol-5-yl)phenyl]amino}propyl]-2′-methyl-N-[1-(propan-2-yl)piperidin-4-yl]biphenyl-3-carboxamide hydrochloride] | 6 nM | 0.14 µmol/L

The next lines start with results.

Row | IC50 (human factor XIa) | SMILES | aPTT (human and animal plasma)
9 | 1.8 nM | COCCOCCOCCNC(=O)c1ccc(C)c(-c2cccc(C[C@H](NC(=O)[C@H]3CC[C@H](CN)CC3)C(=O)Nc3ccc(-c4nnn[nH]4)cc3)c2)c1 [Example 20, 3′-[(2S)-2-({[trans-4-(Aminomethyl)cyclohexyl]carbonyl}amino)-3-oxo-3-{[4-(1H-tetrazol-5-yl)phenyl]amino}propyl]-N-{2-[2-(2-methoxyethoxy)ethoxy]ethyl}-6-methylbiphenyl-3-carboxamide hydrochloride] | 0.24 µmol/L
10 | 2.3 nM | Cc1ccc(C(=O)NCCOCCOCCO)cc1-c1cccc(C[C@H](NC(=O)[C@H]2CC[C@H](CN)CC2)C(=O)Nc2ccc(-c3nnn[nH]3)cc2)c1 [Example 21, 3′-[(2S)-2-({[trans-4-(Aminomethyl)cyclohexyl]carbonyl}amino)-3-oxo-3-{[4-(1H-tetrazol-5-yl)phenyl]amino}propyl]-N-{2-[2-(2-hydroxyethoxy)ethoxy]ethyl}-6-methylbiphenyl-3-carboxamide hydrochloride] | 0.19 µmol/L
11 | 2.4 nM | COCCOCCOCCNC(=O)c1ccc(-c2cccc(C[C@H](NC(=O)[C@H]3CC[C@H](CN)CC3)C(=O)Nc3ccc(-c4nnn[nH]4)cc3)c2)c(C)c1 [Example 22, 3′-[(2S)-2-({[trans-4-(Aminomethyl)cyclohexyl]carbonyl}amino)-3-oxo-3-{[4-(1H-tetrazol-5-yl)phenyl]amino}propyl]-N-{2-[2-(2-methoxyethoxy)ethoxy]ethyl}-2-methylbiphenyl-4-carboxamide hydrochloride] | 0.34 µmol/L
12 | 4.3 nM | CN1CCN(C(=O)c2cccc(-c3cccc(C[C@H](NC(=O)[C@H]4CC[C@H](CN)CC4)C(=O)Nc4ccc(-c5nnc(Cl)[nH]5)cc4)c3)c2)CC1 [Example 24, trans-4-(Aminomethyl)-N-[(2S)-1-{[4-(3-chloro-4H-1,2,4-triazol-5-yl)phenyl]amino}-3-{3′-[(4-methylpiperazin-1-yl)carbonyl]biphenyl-3-yl}-1-oxopropan-2-yl]cyclohexanecarboxamide hydrochloride] | 0.15 µmol/L
13 | 4.7 nM | CN1CCN(C(=O)c2ccc(-c3cccc(C[C@H](NC(=O)[C@H]4CC[C@H](CN)CC4)C(=O)Nc4ccc(-c5nnc(Cl)[nH]5)cc4)c3)cc2)CC1 [Example 27, trans-4-(Aminomethyl)-N-[(2S)-1-{[4-(3-chloro-4H-1,2,4-triazol-5-yl)phenyl]amino}-3-{4′-[(4-methylpiperazin-1-yl)carbonyl]biphenyl-3-yl}-1-oxopropan-2-yl]cyclohexanecarboxamide hydrochloride] | 0.3 µmol/L
14 | 5.5 nM | NC[C@H]1CC[C@H](C(=O)N[C@@H](Cc2cccc(-c3cccc(C(=O)NCCN4CCOCC4)c3)c2)C(=O)Nc2ccc(-c3nnn[nH]3)cc2)CC1 [Example 29, 3′-[(2S)-2-({[trans-4-(Aminomethyl)cyclohexyl]carbonyl}amino)-3-oxo-3-{[4-(1H-tetrazol-5-yl)phenyl]amino}propyl]-N-[2-(morpholin-4-yl)ethyl]biphenyl-3-carboxamide hydrochloride] | 0.37 µmol/L
15 | 5.8 nM | CC(C)N1CCC(NC(=O)c2cccc(-c3cccc(C[C@H](NC(=O)[C@H]4CC[C@H](CN)CC4)C(=O)Nc4ccc(-c5nnc(Cl)[nH]5)cc4)c3)c2)CC1 [Example 30, 3′-[(2S)-2-({[trans-4-(Aminomethyl)cyclohexyl]carbonyl}amino)-3-{[4-(3-chloro-4H-1,2,4-triazol-5-yl)phenyl]amino}-3-oxopropyl]-N-[1-(propan-2-yl)piperidin-4-yl]biphenyl-3-carboxamide hydrochloride] | 0.34 µmol/L
16 | 7 nM | CN1CCN(C(=O)c2cccc(-c3cccc(C[C@H](NC(=O)[C@H]4CC[C@H](CN)CC4)C(=O)Nc4ccc(-c5nnn[nH]5)cc4)c3)c2)CC1 [Example 31, trans-4-(Aminomethyl)-N-[(2S)-3-{3′-[(4-methylpiperazin-1-yl)carbonyl]biphenyl-3-yl}-1-oxo-1-{[4-(1H-tetrazol-5-yl)phenyl]amino}propan-2-yl]cyclohexanecarboxamide hydrochloride] | 0.36 µmol/L
